Laboratory results taken from US8946413B2 (Pfizer Inc., priority 2008, dated 2015).
Read-outs that look alike come from different tables or passages of the source.

Target: T1, CCR2 (Homo sapiens, UniProt P41597)
T1 construct: (leukophoresis pack); host or cells: human peripheral blood mononuclear cells (PBMCs) from a normal human leukophoresis pack
Test: hCCR2 (125-I hMCP-1) small molecule binding assay on human PBMCs
Details: 125I-MCP-1, human PBMCs
Description: The CCR2 antagonist activity of compounds of the invention can be reported as the inhibitor concentration required for 50% inhibition (IC50 values) of specific binding in receptor binding assays using 125I-labeled MCP-1, as ligand, and Peripheral Blood Mononuclear Cells (PBMCs) prepared from normal human whole blood via density gradient centrifugation. Specific binding is defined as the total binding (e.g., total cpm on filters) minus the non-specific binding. Non-specific binding is defined as the amount of cpm still defected in the presence of excess unlabeled competitor (e.g., MCP-1),
Human PBMCs were used to test compounds of the invention in a binding assay. For example, 200,000 to 500,000 cells were incubated with 0.1 to 0.2 nM 125I-labeled MCP-1, with or without unlabeled competitor (10 nM MCP-1) or various concentrations of compounds to be tested. 125I-labeled MCP-1, were prepared by suitable methods or purchased from commercial vendors (Perkin Elmer, Boston Mass.). The binding reactions were performed in 50 to 250 μL of a binding buffer consisting of […] pH 7.2, and 0.1% BSA (bovine serum albumin), for 30 minutes at room temperature. The binding reactions were terminated by harvesting the membranes by rapid filtration through glass fiber filters (Perkin Elmer) which was presoaked in 0.3% polyethyleneimine or Phosphate Buffered Saline (PBS). The filters were rinsed with approximately 600 μL of binding buffer containing, 0.5 M NaCl or PBS, then dried, and the amount of bound radioactivity was determined by counting on a Gamma Counter (Perkin Elmer).
More specifically, the following assay may be employed to determine IC50 values for the compounds of the present invention.
hCCR2 (125-I hMCP-1) Small Molecule Binding Assay
Normal human leukophoresis pack contents, available from Biological Specialty Corporation, Colmar, Pa., is diluted 1:1 with PBS, divided into 50 ml conical tubes (preferably less than 40 mls per tube), and underlayed with 10 mls of Ficoll-Paque PLUS (GE Healthcare 17-1440-02). The tubes are centrifuged at 2800 rpm in a clinical centrifuge at room temperature for 30 mins, with no brake. The plasma layer is suctioned, and the buffycoat layer is collected. The collected buffycoat layer is washed twice with 50 mls PBS, and centrifuged at 1400 rpm with brake. The cells are counted. The cells are then diluted to 1×10^7 cells per ml in binding buffer.
96 well plates (such as, for example, Millipore MultiScreen96 plates) are pre-wet with about 100 μl binding buffer (RPMI+0.1% BSA+20 mM HEPES), and blotted just prior to compound addition.
5 μl of 50 μM test compounds in 100% DMSO are dotted onto U-bottom polypropylene 96-well plates.
245 μl per well of Binding Buffer is added to each well for 1 μM compound concentration in 2% DMSO.
50 μl of 1 μM compound is transferred to pre-wetted Millipore plates. 50 μl per well of 1×10E7 cells per ml of freshly prepared human PBMCs are added.
The samples are pre-incubated at room temperature for 30 minutes or 1 hour.
50 μl of 450 pM 125-I-hMCP-1 (Perkin-Elmer/NEN cat#NEX332025UC) is added for a final concentration 125-I-hMCP-1 of 150 pM per well.
The final test compound concentration is 0.333 uM in 150 μl total volume with 0.67% DMSO in all wells. Controls for this assay consist of 0% inhibition and 100% inhibition with 1 uM hMCP-1 (saturating conditions). All wells are run in duplicate. Controls may be in replicates of eight.
The samples are incubated at room temperature for 30 minutes.
The buffer is suctioned through the Millipore plates. The plates are washed three times with Wash Buffer (PRMI+0.1% BSA+20 mM HEPES+ 0.4 M NaC).
The plate underdrain is removed. The plate filters are allowed to dry. The filters are then punched out into plastic tubes.
Finally, the sample is counted an a Gamma Counter.
All IC50 plates were repeated for an n=2.
The following table summarizes the IC50 values identified through the described assay.

[1] = 30 min preincubation, read-out: IC50 (nM) 30 min preinc
[2] = 1 hr preincubation, read-out: IC50 (nM) 1 hr preinc

T1 sequence (P41597 whole entry): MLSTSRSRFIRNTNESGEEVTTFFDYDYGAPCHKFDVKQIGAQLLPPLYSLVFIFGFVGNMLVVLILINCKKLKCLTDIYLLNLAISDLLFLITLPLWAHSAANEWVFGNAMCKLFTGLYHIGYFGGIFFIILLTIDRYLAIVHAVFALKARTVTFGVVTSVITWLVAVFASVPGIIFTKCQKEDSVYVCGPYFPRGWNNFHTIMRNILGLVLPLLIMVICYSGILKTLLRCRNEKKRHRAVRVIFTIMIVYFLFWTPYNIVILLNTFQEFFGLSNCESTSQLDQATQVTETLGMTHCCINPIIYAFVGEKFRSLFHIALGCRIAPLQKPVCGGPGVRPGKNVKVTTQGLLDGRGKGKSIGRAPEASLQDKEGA

`CO[C@@H]1COCC[C@@H]1N[C@@H]1CC[C@](CC(F)(F)F)(C(=O)N2C[C@@H]3C[C@H]2CN3c2cc(C(F)(F)F)ccn2)C1` [Example 33, 1,5-anhydro-2,3-dideoxy-4-O-methyl-3-{[(1R,3S)-3-(2,2,2-trifluoroethyl)-3-({(1S,4S)-5-[4-(trifluoromethyl)pyridin-2-yl]-2,5-diazabicyclo[2.2.1]hept-2-yl}carbonyl)cyclopentyl]amino}-D-erythro-pentitol] showed an IC50 [1] of 57.3 nM and an IC50 [2] of 11.7 nM.

`CO[C@@H]1COCC[C@@H]1N[C@@H]1CC[C@](CC(F)(F)F)(C(=O)N2C[C@@H]3C[C@H]2CN3c2ccnc(C(F)(F)F)c2)C1` [Example 34, 1,5-anhydro-2,3-dideoxy-4-O-methyl-3-{[(1R,3S)-3-(2,2,2-trifluoroethyl)-3-({(1S,4S)-5-[2-(trifluoromethyl)pyridin-4-yl]-2,5-diazabicyclo[2.2.1]hept-2-yl}carbonyl)cyclopentyl]amino}-D-erythro-pentitol] was tested, and the IC50 [1] was 66.5 nM and the IC50 [2] was 6.94 nM.

For `CO[C@@H]1COCC[C@@H]1N[C@@H]1CC[C@](CC(F)(F)F)(C(=O)N2C[C@@H]3C[C@H]2CN3c2nccc(C(F)(F)F)n2)C1` [Example 35, 1,5-anhydro-2,3-dideoxy-4-O-methyl-3-{[(1R,3S)-3-(2,2,2-trifluoroethyl)-3-({(1S,4S)-5-[4-(trifluoromethyl)pyrimidin-2-yl]-2,5-diazabicyclo[2.2.1]hept-2-yl}carbonyl)cyclopentyl]amino}-D-erythro-pentitol], the IC50 [1] was 28.4 nM and the IC50 [2] was 5.52 nM.

In the case of `CO[C@@H]1COCC[C@@H]1N[C@@H]1CC[C@](CC(F)(F)F)(C(=O)N2C[C@@H]3C[C@H]2CN3c2cccc(C(F)(F)F)n2)C1` [Example 36, 1,5-anhydro-2,3-dideoxy-4-O-methyl-3-{[(1R,3S)-3-(2,2,2-trifluoroethyl)-3-({(1S,4S)-5-[6-(trifluoromethyl)pyridin-2-yl]-2,5-diazabicyclo[2.2.1]hept-2-yl}carbonyl)cyclopentyl]amino}-D-erythro-pentitol], the IC50 [1] is reported as 12.6 nM and the IC50 [2] is reported as 2.19 nM.

`CO[C@@H]1COCC[C@@H]1N[C@@H]1CC[C@](CC(F)(F)F)(C(=O)N2C[C@@H]3C[C@H]2CN3c2cncc(C(F)(F)F)n2)C1` [Example 37] was tested, and the IC50 [2] was 3.68 nM.

For `CO[C@@H]1COCC[C@@H]1N[C@@H]1CC[C@](CC(F)(F)F)(C(=O)N2C[C@@H]3C[C@H]2CN3c2ccnc(C(F)(F)F)n2)C1` [Example 38, 1,5-anhydro-2,3-dideoxy-4-O-methyl-3-{[(1R,3S)-3-(2,2,2-trifluoroethyl)-3-({(1S,4S)-5-[2-(trifluoromethyl)pyrimidin-4-yl]-2,5-diazabicyclo[2.2.1]hept-2-yl}carbonyl)cyclopentyl]amino}-D-erythro-pentitol], the IC50 [1] was 68.7 nM and the IC50 [2] was 2.02 nM.

Work on `CO[C@@H]1COCC[C@@H]1N[C@@H]1CC[C@](CC(F)(F)F)(C(=O)N2C[C@@H]3C[C@H]2CN3c2cc(C(F)(F)F)cnn2)C1` [Example 39, 1,5-anhydro-2,3-dideoxy-4-O-methyl-3-{[(1R,3S)-3-(2,2,2-trifluoroethyl)-3-({(1S,4S)-5-[5-(trifluoromethyl)pyridazin-3-yl]-2,5-diazabicyclo[2.2.1]hept-2-yl}carbonyl)cyclopentyl]amino}-D-erythro-pentitol] yielded an IC50 [1] of 82.9 nM and an IC50 [2] of 5.81 nM.

For `CO[C@@H]1COCC[C@@H]1N[C@@H]1C=C[C@@](C(=O)N2C[C@@H]3C[C@H]2CN3c2cc(C(F)(F)F)ccn2)(C(C)C)C1` [Example 40, 1,5-anhydro-2,3-dideoxy-3-{[(1S,4S)-4-isopropyll-4-({(1S,4S)-5-[4-(trifluoromethyl)pyridin-2-yl]-2,5-diazabicyclo[2.2.1]hept-2-yl}carbonyl)cyclopent-2-en-1-yl]amino}-4-O-methyl-D-erythro-pentitol], the IC50 [1] was 18.3 nM.

`CO[C@@H]1COCC[C@@H]1N[C@@H]1C=C[C@@](C(=O)N2C[C@@H]3C[C@H]2CN3c2nccc(C(F)(F)F)n2)(C(C)C)C1` [Example 41, 1,5-anhydro-2,3-dideoxy-3-{[(1S,4S)-4-isopropyll-4-({(1S,4S)-5-[4-(trifluoromethyl)pyrimidin-2-yl]-2,5-diazabicyclo[2.2.1]hept-2-yl}carbonyl)cyclopent-2-en-1-yl]amino}-4-O-methyl-D-erythro-pentitol] showed an IC50 [1] of 63.6 nM.

For `CO[C@@H]1COCC[C@@H]1N[C@@H]1C=C[C@@](C(=O)N2C[C@@H]3C[C@H]2CN3c2cccc(C(F)(F)F)n2)(C(C)C)C1` [Example 42, 1,5-anhydro-2,3-dideoxy-3-{[(1S,4S)-4-isopropyll-4-({(1S,4S)-5-[6-(trifluoromethyl)pyridin-2-yl]-2,5-diazabicyclo[2.2.1]hept-2-yl}carbonyl)cyclopent-2-en-1-yl]amino}-4-O-methyl-D-erythro-pentitol], the IC50 [1] was 70.9 nM.

For `CO[C@@H]1COCC[C@@H]1N[C@@H]1C=C[C@@](C(=O)N2C[C@@H]3C[C@H]2CN3c2cncc(C(F)(F)F)n2)(C(C)C)C1` [Example 43, 1,5-anhydro-2,3-dideoxy-3-{[(1S,4S)-4-isopropyll-4-({(1S,4S)-5-[6-(trifluoromethyl)pyrazin-2-yl]-2,5-diazabicyclo[2.2.1]hept-2-yl}carbonyl)cyclopent-2-en-1-yl]amino}-4-O-methyl-D-erythro-pentitol], the IC50 [1] was 47.3 nM.

`CO[C@@H]1COCC[C@@H]1N[C@@H]1CC[C@](CC(F)(F)F)(C(=O)N2C[C@@H]3C[C@H]2CN3C(=O)OC(C)(C)C)C1` [Example 44, 1,5-anhydro-3-{[(1R,3S)-3-{[(1S,4S)-5-(tert-butoxycarbonyl)-2,5-diazabicyclo[2.2.1]hept-2-yl]carbonyl}-3-(2,2,2-trifluoroethyl)cyclopentyl]amino}-2,3-dideoxy-4-O-methyl-D-erythro-pentitol] was tested, and the IC50 [2] was 8.1 nM.

`CO[C@@H]1COCC[C@@H]1N[C@@H]1CC[C@@](C(=O)N2C[C@@H]3C[C@H]2CN3c2cccc(C(F)(F)F)n2)(C2(O)CCC2)C1` [Example 45, 1,5-anhydro-2,3-dideoxy-3-{[(1R,3S)-3-(1-hydroxycyclobutyl)-3-({(1S,4S)-5-[6-(trifluoromethyl)pyridin-2-yl]-2,5-diazabicyclo[2.2.1]hept-2-yl}carbonyl)cyclopentyl]amino}-4-O-methyl-D-erythro-pentitol] gave an IC50 [1] of 25.3 nM.

`CO[C@@H]1COCC[C@@H]1N[C@@H]1CC[C@@](C(=O)N2C[C@@H]3C[C@H]2CN3c2cc(C(F)(F)F)ccn2)(C2(O)CCC2)C1` [Example 46, 1,5-anhydro-2,3-dideoxy-3-{[(1R,3S)-3-(1-hydroxycyclobutyl)-3-({(1S,4S)-5-[4-(trifluoromethyl)pyridin-2-yl]-2,5-diazabicyclo[2.2.1]hept-2-yl}carbonyl)cyclopentyl]amino}-4-O-methyl-D-erythro-pentitol] was tested, and the IC50 [1] was 3.19 nM.

Work on `CO[C@@H]1COCC[C@@H]1N[C@@H]1CC[C@@](C(=O)N2C[C@@H]3C[C@H]2CN3c2nccc(C(F)(F)F)n2)(C2(O)CCC2)C1` [Example 47, 1,5-anhydro-2,3-dideoxy-3-{[(1R,3S)-3-(1-hydroxycyclobutyl)-3-({(1S,4S)-5-[4-(trifluoromethyl)pyrimidin-2-yl]-2,5-diazabicyclo[2.2.1]hept-2-yl}carbonyl)cyclopentyl]amino}-4-O-methyl-D-erythro-pentitol] yielded an IC50 [1] of 6.16 nM.
